Measurements: patent publication US8188126B2, “Imidazolic compounds and use thereof as alpha-2 adrenergic receptors” (Pierre Fabre Medicament, priority 2002, dated 2012)

Tests used:
rats = experiment: Morris water maze test (spatial memory, probe trial); format: in vivo; details: for Effect on spatial memory processes (in words): i.p. after training sessions of days 1 and 2; for Increase in spatial memory performance: probe trial on day 3 after two training days
From the text: Morris Water Maze—Basic Principles of the Test
In the animal test paradigm, rats are placed into a circular pool containing water and are required to find an escape platform just beneath the surface of the water and therefore invisible to the animal. The performances are dependent on the number of training days.
Morris Water Maze—Detailed Protocol
The water maze test was adapted from the original protocol of Morris (1981). The test apparatus consisted of a circular fibreglass tank (130 cm in diameter, 50 cm deep). The pool was filled to a height of 30 cm with water at room temperature (21-22° C.). The pool was divided into four virtual quadrants (Q1, Q2, Q3 and Q4) of equal surface area. A transparent escape platform made of Plexiglas (10 cm in diameter, 29 cm high) was placed in a fixed location in the tank, 1 cm below the water surface. […] Many extra-maze cues surrounded the maze and were available for the rats to use in locating the escape platform. On the training trials, the platform remained in a constant location in the centre of one quadrant (Q4) equidistant from the centre and the edge of the pool. Each rat received three trials/day for 1, 2, 3 or 4 days. Each training trial involved placing the rat into the pool facing the wall at one of the 3 quadrants Q1, Q2 and Q3. A different starting point was randomly used on each trial. The rats were allowed to swim freely until they found the escape platform. The latency to find the hidden platform was recorded and used as a measure of acquisition of the task. […] The intertrial interval was 20 sec during which the rat remained on the platform. Twenty hours after the last training trial, the platform was removed from the pool, the rats were allowed to swim for 60 sec in the pool and the time spent in the target quadrant Q4 (the quadrant in which the platform was during training) was recorded. The percent time spent in the previous training quadrant Q4 was used as an index of memory. The higher the percentage, the better the memory was considered to be (Yavich L., Sirviö J., Haapalinna A., Puumala T., Koivisto E., Heinonen E., Riekkinen P. Jr. (1996) The systemic administration of tacrine or selegeline facilitate spatial learning in aged Fisher 344 rats. J Neural Transm 103: 619-626).
Pharmacological Treatment and Statistical Analysis
Rats received two training days and were tested in a probe trial, without platform, on the third day. […] Results were expressed as the mean±standard error of the mean (SEM) of performance (latency to find the platform and percentage time spent in target quadrant) and were analysed by one-way analysis of variance, with drug treatment as the factor, followed by a 2-tailed Student t-test (GB-STAT, Friedman P. (1991) GB-STAT: computer aided statistics & graphics, Ver 3.0. Dynamic Microsystems, Inc., Silver Spring). In the probe trial, without platform, results were also compared to chance performance (25%) by a 1-sample Student t-test (GB-STAT, Friedman, 1991). Results obtained with compounds I-1 (Example 4), (−)-1-1 (Example 6), (+)-1-1 (Example 5) and 1-2 (Example 7): […]

[1] = test system: scopolamine-induced memory deficiency; experiment: Scopolamine-induced memory deficiency test (passive avoidance); format: in vivo; details: rats
From the text: Scopolamine-Induced Memory Deficiency Test. Scopolamine has amnesiac properties in animals and humans. In this way, its administration to healthy humans induces certain symptoms similar to those observed in Alzheimer's disease. Therefore, the scopolamine-induced memory deficiency is used as an experimental pharmacological model of the memory disorders observed in the course of this condition. Scopolamine reduces acquisition, memorisation and recall capacities in a passive avoidance test in rats. It consists of measuring the hesitancy, after learning, shown by an animal to enter a dark compartment in which it receives a low-intensity electric shock. The administration of scopolamine does away with this hesitancy and the compounds studied inhibit the effect of scopolamine. The experimental protocol used is described in Psychopharmacol. 1992, 106, 26-30.

human alpha-2A receptor = biological target: T1, human alpha-2A receptor (Homo sapiens, UniProt P08913); experiment: Bonds with alpha-2 adrenergic receptors ([3H]RX 821002 binding, C6 cell membranes); details: 2 nM [3H]RX 821002, C6 cell membranes expressing human alpha-2A receptor, 30 min at 25° C.; read-out: Affinity (pKi) Alpha-2A (converted)
T1 construct: expressed in transfected cells; host or cells: C6 cells (rat glioma, by own knowledge) continuously expressing the human receptor; membranes
T1 sequence (P08913 1-465): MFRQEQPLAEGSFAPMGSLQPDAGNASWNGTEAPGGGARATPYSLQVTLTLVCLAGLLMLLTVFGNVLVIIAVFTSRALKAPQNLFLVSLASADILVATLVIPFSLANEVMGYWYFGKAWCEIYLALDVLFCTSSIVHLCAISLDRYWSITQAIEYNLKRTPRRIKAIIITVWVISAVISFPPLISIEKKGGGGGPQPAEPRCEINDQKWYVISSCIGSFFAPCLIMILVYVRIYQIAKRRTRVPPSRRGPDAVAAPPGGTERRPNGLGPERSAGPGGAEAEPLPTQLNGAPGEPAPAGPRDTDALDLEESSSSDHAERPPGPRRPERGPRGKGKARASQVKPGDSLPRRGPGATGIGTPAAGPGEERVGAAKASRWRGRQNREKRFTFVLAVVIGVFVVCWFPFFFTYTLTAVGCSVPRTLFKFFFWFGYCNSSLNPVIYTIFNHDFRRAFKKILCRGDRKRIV
Protocol: Bonds with Alpha-2 Adrenergic Receptors
The C6 cell membranes continuously expressing the human alpha-2A receptor are prepared in Tris-HCl (pH=7.6). The bond tests are conducted with 2 nM [3H]RX 821002. The incubation medium consists of 0.4 ml of cell membranes (10 μg of proteins), 0.05 ml of radioligand and 0.05 ml of test product or phentolamine (10 μM) to determine the non-specific bond. The reaction is stopped after 30 minutes of incubation at 25° C. by adding 3 ml of Tris-HCl, 50 mM (pH=7.6), cold, followed by filtration on Whatman filters, GF/B using a Brandel. The Ki values are calculated according to the equation Ki=IC50/(1+C/Kd) where C is the concentration and Kd the dissociation constant, pKi=−log Ki. Under these conditions, the compounds according to the invention appear to have a strong affinity for human alpha-2A adrenergic subtype receptors.

[2] = biological target: T2, human alpha-2A adrenergic receptors (Homo sapiens, UniProt P08913); experiment: Measurement of alpha-2 adrenergic receptor activation (GTPγS response on membrane preparations); format: biochemical; details: expressed with reference to (−)-adrenaline (maximum stimulation = +100), read-out: Intrinsic activity % stimulated
T2 construct: expressed in transfected cells; host or cells: membrane preparations
T2 sequence (P08913 1-465): T1 sequence (P08913 1-465)
Protocol: Measurement of Alpha-2 Adrenergic Receptor Activation
The GTPγS responses are produced on membrane preparations in 20 mM HEPES (pH=7.4) with 30 [mu]M of GDP, 100 mM of NaCl, 3 mM of MgCl2 and 0.2 mM of ascorbic acid. The maximum GTPγS stimulation is determined in the presence of […] of (−)-adrenaline and calculated with respect to the basal GTPγS response. The results are expressed with reference to adrenaline or RX 811059. Under these conditions, the compounds according to the invention are distinguished from the majority of the compounds according to the prior art in that they behave more like reverse agonists on human alpha-2A adrenergic receptors (see table above).

Compound	Effect on spatial memory processes (in words) (rats)	Increase in spatial memory performance (rats; 0.16 mg/kg i.p. immediately after training sessions) [%]	Scopolamine memory deficiency % aplitude of effect ([1]; dose 0.16 mg/kg i.p.)	Scopolamine memory deficiency % aplitude of effect ([1]; dose 2.5 mg/kg i.p.)	Ki (human alpha-2A receptor) [nM]	Increase in spatial memory performance (rats; 0.63 and 2.5 mg/kg i.p. immediately after training sessions)	Emax [2] [%]	Scopolamine memory deficiency % aplitude of effect ([1]; dose 0.63 mg/kg i.p.)	Increase in spatial memory performance (rats; 2.54 mg/kg i.p. immediately after training sessions) [%]	Increase in spatial memory performance (rats; 2.5 mg/kg i.p. immediately after training sessions) [%]
c1ccc2c(c1)C1CC1(c1c[nH]cn1)C21CC1 (single isomer, unassigned; (+)) [(+)-1-1, (+)-4-(6-spiro-1′-cyclopropane-1a,6-dihydro-1H-cyclopropa[a]inden-6a-yl)-1H-imidazole]	promnesic effect	17								
COc1cc2c(cc1OC)C(=O)C(CC1CCN(Cc3ccccc3)CC1)C2 (stereo not drawn) [Donepezil, reference compound]			+67%							
c1ccc2c(c1)C1CC1(c1cnc[nH]1)C21CC1 (single isomer, unassigned; (-)) [(-)-1-1, (−)-4-(6-spiro-1′-cyclopropane-1a,6-dihydro-1H-cyclopropa[a]inden-6a-yl)-1H-imidazole]	promnesic effect			+138%	2.51	up to 48%	37			
C[C@@H]1[C@H]2c3ccccc3C3(CC3)[C@@]12c1c[nH]cn1 (relative stereo) [Compound 1-2, 4-(1-exo-methyl-6-spiro-1′-cyclopropane-1a,6-dihydro-1H-cyclopropa[a]inden-6a-yl)-1H-imidazole]	promnesic effect				7.94		7	+201%	42	
Fc1ccc2c(c1)C1(CC1)C1(c3c[nH]cn3)CC21 (stereo not drawn) [Compound 1-5, 4-(4-fluoro-6-spiro-t-cyclopropane-1a,6-dihydro-1H-cyclopropa[a]inden-6a-yl)-1H-imidazole]					0.316		-10	+241%		
c1ccc2c(c1)C1CC1(c1cnc[nH]1)C21CC1 (stereo not drawn) [Compound 1-1, 4-(6-spiro-1′-cyclopropane-1a,6-dihydro-1H-cyclopropa[a]inden-6a-yl)-1H-imidazole]	promnesic effect			+122%	0.316		14			46
